Data published in PubChem BioAssay (NCI).
Several values for one entry are separate records, joined by “and”; a condition that tells them apart may be missing. Equal entries are not always repeated.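 1) Cells in 96-well plates. 2) Compound, 48 h, 5 concentrations. 3) Linear interpolation between surrounding doses. 4) Unreached endpoint = highest concentration. The concentration for 50% growth inhibition is given as GI50. TGI denotes the concentration required for complete inhibition of growth.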

Tested on: U251 CNS
Assay: DTP human tumour cell line panel, 48 h

Compared with c1ccc(-c2[nH]ncc2-c2ccnc(-c3ccc(OCCn4ccnc4)cc3)c2)nc1, Cn1nccc1Nc1nccc(-c2ccn([C@H](CO)c3ccc(Cl)c(F)c3)c(=O)c2)n1 is lower in GI50: over 25 µM for the first, 20.8 µM for the second.

Going from O=C1c2cccc(Oc3ccccc3)c2C(=O)c2cccc(Oc3ccccc3)c21 to O=C(/C=C/C12c3ccccc3C(c3ccccc31)C1C(=O)NC(=O)C12)c1ccccn1 (stereo unspecified), the GI50 falls from 33.3 µM to 1.4 µM (24-fold).

Compared with O=C(OCc1ccc2c(Br)cc(Br)c(O)c2n1)c1cc2ccccc2[nH]1, O=C1NC(=N[C@@H](CO)c2ccccc2)S/C1=C\c1ccc2ncccc2c1 is 7.9-fold higher in GI50: 1.4 µM for the first, 11 µM for the second.

Compared with CC(C)(CO)CNC(=O)c1ccc2[nH]c(O)c(N=Nc3ccc(S(N)(=O)=O)cc3)c2c1, CC1(C)N=C(N)N=C(N)N1c1ccc(CCC(=O)Nc2ccc(S(=O)(=O)F)cc2)cc1 is lower in GI50: over 25 µM for the first, 2.01 µM for the second.

First: N#CC1(c2ccc(NC(=O)c3cccnc3NCc3ccncc3)cc2)CCCC1
Second: CCNc1nc(O)c(/C=C2\C=Nc3ncccc32)s1
The GI50 of the first is 4.6-fold higher: 12 µM for the first, 2.6 µM for the second.

First: CCN1C(=S)N(CC)C2C1NC(=S)N2/N=C/C=C/c1ccccc1OC (stereo unspecified)
Second: N#CC1c2ccccc2C=CN1C(=O)CCCl (stereo unspecified)
The GI50 of the first is 50-fold lower: 0.354 µM for the first, 17.6 µM for the second.

O=C1/C(=C/c2ccc(Cl)c(Cl)c2)CN(C(=O)CCN2CCC(=NO)CC2)C/C1=C\c1ccc(Cl)c(Cl)c1 showed a GI50 of 0.268 µM.

c1ccc(-c2[nH]ncc2-c2ccnc(-c3ccc(OCCn4ccnc4)cc3)c2)nc1 and Cn1nccc1Nc1nccc(-c2ccn([C@H](CO)c3ccc(Cl)c(F)c3)c(=O)c2)n1 cannot be ordered by TGI: over 25 µM for the first, over 100 µM for the second.

O=C1c2cccc(Oc3ccccc3)c2C(=O)c2cccc(Oc3ccccc3)c21 and CC1=C(C(=O)Nc2ccccc2)C(c2ccc(N(C)C)cc2)C(C(=O)Nc2ccccc2)=C(C)N1 cannot be ordered by TGI: over 100 µM for the first, over 72.4 µM for the second.

Compared with O=C(OCc1ccc2c(Br)cc(Br)c(O)c2n1)c1cc2ccccc2[nH]1, O=C1NC(=N[C@@H](CO)c2ccccc2)S/C1=C\c1ccc2ncccc2c1 is higher in TGI: 2.91 µM for the first, over 25 µM for the second.

CC(C)(CO)CNC(=O)c1ccc2[nH]c(O)c(N=Nc3ccc(S(N)(=O)=O)cc3)c2c1 and CCc1ccccc1NC(=O)c1cccc([N+](=O)[O-])c1O cannot be ordered by TGI: over 25 µM for the first, over 100 µM for the second.

CC1(C)N=C(N)N=C(N)N1c1ccc(CCC(=O)Nc2ccc(S(=O)(=O)F)cc2)cc1 and Cc1ccc(S(=O)(=O)OCC/C(=C\[Si](C)(C)C)c2ccccc2)cc1 cannot be ordered by TGI: over 100 µM for the first, over 100 µM for the second.

Going from N#CC1(c2ccc(NC(=O)c3cccnc3NCc3ccncc3)cc2)CCCC1 to O=C(/C=C/C12c3ccccc3C(c3ccccc31)C1C(=O)NC(=O)C12)c1ccccn1 (stereo unspecified), the TGI falls from 25.8 µM to 2.74 µM (9.4-fold).

CCN1C(=S)N(CC)C2C1NC(=S)N2/N=C/C=C/c1ccccc1OC (stereo unspecified) and N#CC1c2ccccc2C=CN1C(=O)CCCl (stereo unspecified) are within 1.5-fold of each other in TGI: 24.4 µM for the first, 32 µM for the second.

Going from CCOC(=O)c1nc(C)oc1C(F)(F)F to CCNc1nc(O)c(/C=C2\C=Nc3ncccc32)s1, the TGI falls from over 100 µM to 8.24 µM.

First: O=C1/C(=C\c2ccccc2)CN(C(=O)CCN2CCCCC2)C/C1=C/c1ccccc1
Second: O=C1/C(=C/c2ccc(Cl)c(Cl)c2)CN(C(=O)CCN2CCC(=NO)CC2)C/C1=C\c1ccc(Cl)c(Cl)c1
The TGI of the first is 2.3-fold higher: 1.86 µM for the first, 0.818 µM for the second.

Cc1cc(O)c2c(c1)C(=O)C=CC2=O was tested, and the GI50 was 14.2 µM and 5.29 µM.

In the case of Cc1cc(O)c2c(c1)C(=O)C=CC2=O, the TGI is reported as 33.7 µM and 23.4 µM.

Tested on: NCI-H226 lung
Assay: DTP human tumour cell line panel, 48 h

c1ccc(-c2[nH]ncc2-c2ccnc(-c3ccc(OCCn4ccnc4)cc3)c2)nc1 and Cn1nccc1Nc1nccc(-c2ccn([C@H](CO)c3ccc(Cl)c(F)c3)c(=O)c2)n1 cannot be ordered by GI50: over 18.7 µM for the first, 34.8 µM for the second.

Compared with O=C1c2cccc(Oc3ccccc3)c2C(=O)c2cccc(Oc3ccccc3)c21, O=C(/C=C/C12c3ccccc3C(c3ccccc31)C1C(=O)NC(=O)C12)c1ccccn1 (stereo unspecified) is lower in GI50: over 100 µM for the first, 2.98 µM for the second.

First: O=C(OCc1ccc2c(Br)cc(Br)c(O)c2n1)c1cc2ccccc2[nH]1
Second: O=C1NC(=N[C@@H](CO)c2ccccc2)S/C1=C\c1ccc2ncccc2c1
The GI50 of the first is 8.2-fold lower: 1.42 µM for the first, 11.7 µM for the second.

Compared with CC(C)(CO)CNC(=O)c1ccc2[nH]c(O)c(N=Nc3ccc(S(N)(=O)=O)cc3)c2c1, CC1(C)N=C(N)N=C(N)N1c1ccc(CCC(=O)Nc2ccc(S(=O)(=O)F)cc2)cc1 is lower in GI50: over 25 µM for the first, 7.35 µM for the second.

Going from N#CC1(c2ccc(NC(=O)c3cccnc3NCc3ccncc3)cc2)CCCC1 to CCNc1nc(O)c(/C=C2\C=Nc3ncccc32)s1, the GI50 falls from 12.3 µM to 2.83 µM (4.3-fold).

Going from CCN1C(=S)N(CC)C2C1NC(=S)N2/N=C/C=C/c1ccccc1OC (stereo unspecified) to N#CC1c2ccccc2C=CN1C(=O)CCCl (stereo unspecified), the GI50 rises from 0.903 µM to 17.6 µM (19-fold).

O=C1/C(=C/c2ccc(Cl)c(Cl)c2)CN(C(=O)CCN2CCC(=NO)CC2)C/C1=C\c1ccc(Cl)c(Cl)c1 showed a GI50 of 1.26 µM.

c1ccc(-c2[nH]ncc2-c2ccnc(-c3ccc(OCCn4ccnc4)cc3)c2)nc1 and Cn1nccc1Nc1nccc(-c2ccn([C@H](CO)c3ccc(Cl)c(F)c3)c(=O)c2)n1 cannot be ordered by TGI: over 25 µM for the first, over 100 µM for the second.

O=C1c2cccc(Oc3ccccc3)c2C(=O)c2cccc(Oc3ccccc3)c21 and CC1=C(C(=O)Nc2ccccc2)C(c2ccc(N(C)C)cc2)C(C(=O)Nc2ccccc2)=C(C)N1 cannot be ordered by TGI: over 100 µM for the first, over 100 µM for the second.

First: O=C(OCc1ccc2c(Br)cc(Br)c(O)c2n1)c1cc2ccccc2[nH]1
Second: O=C1NC(=N[C@@H](CO)c2ccccc2)S/C1=C\c1ccc2ncccc2c1
The TGI of the first is lower: 3.11 µM for the first, over 25 µM for the second.

CC(C)(CO)CNC(=O)c1ccc2[nH]c(O)c(N=Nc3ccc(S(N)(=O)=O)cc3)c2c1 and CCc1ccccc1NC(=O)c1cccc([N+](=O)[O-])c1O cannot be ordered by TGI: over 25 µM for the first, 88.7 µM for the second.

CC1(C)N=C(N)N=C(N)N1c1ccc(CCC(=O)Nc2ccc(S(=O)(=O)F)cc2)cc1 and Cc1ccc(S(=O)(=O)OCC/C(=C\[Si](C)(C)C)c2ccccc2)cc1 cannot be ordered by TGI: over 100 µM for the first, over 100 µM for the second.

Compared with N#CC1(c2ccc(NC(=O)c3cccnc3NCc3ccncc3)cc2)CCCC1, O=C(/C=C/C12c3ccccc3C(c3ccccc31)C1C(=O)NC(=O)C12)c1ccccn1 (stereo unspecified) is 6.4-fold lower in TGI: 75.1 µM for the first, 11.7 µM for the second.

CCN1C(=S)N(CC)C2C1NC(=S)N2/N=C/C=C/c1ccccc1OC (stereo unspecified) and N#CC1c2ccccc2C=CN1C(=O)CCCl (stereo unspecified) cannot be ordered by TGI: over 39.3 µM for the first, 54.9 µM for the second.

Compared with CCOC(=O)c1nc(C)oc1C(F)(F)F, CCNc1nc(O)c(/C=C2\C=Nc3ncccc32)s1 is lower in TGI: over 100 µM for the first, 28.7 µM for the second.

Going from O=C1/C(=C\c2ccccc2)CN(C(=O)CCN2CCCCC2)C/C1=C/c1ccccc1 to O=C1/C(=C/c2ccc(Cl)c(Cl)c2)CN(C(=O)CCN2CCC(=NO)CC2)C/C1=C\c1ccc(Cl)c(Cl)c1, the TGI falls from 16.5 µM to 2.53 µM (6.5-fold).

With Cc1cc(O)c2c(c1)C(=O)C=CC2=O the TGI was 42.4 µM and 39.2 µM.

Tested on: CAKI-1 renal
Assay: DTP human tumour cell line panel, 48 h

c1ccc(-c2[nH]ncc2-c2ccnc(-c3ccc(OCCn4ccnc4)cc3)c2)nc1 and O=C1c2cccc(Oc3ccccc3)c2C(=O)c2cccc(Oc3ccccc3)c21 cannot be ordered by GI50: over 25 µM for the first, over 100 µM for the second.

Compared with O=C(OCc1ccc2c(Br)cc(Br)c(O)c2n1)c1cc2ccccc2[nH]1, CC(C)(CO)CNC(=O)c1ccc2[nH]c(O)c(N=Nc3ccc(S(N)(=O)=O)cc3)c2c1 is higher in GI50: 0.505 µM for the first, over 25 µM for the second.

Compared with CC1(C)N=C(N)N=C(N)N1c1ccc(CCC(=O)Nc2ccc(S(=O)(=O)F)cc2)cc1, N#CC1(c2ccc(NC(=O)c3cccnc3NCc3ccncc3)cc2)CCCC1 is 7.2-fold higher in GI50: 2.33 µM for the first, 16.8 µM for the second.

CCN1C(=S)N(CC)C2C1NC(=S)N2/N=C/C=C/c1ccccc1OC (stereo unspecified) was tested, and the GI50 was 0.101 µM.

c1ccc(-c2[nH]ncc2-c2ccnc(-c3ccc(OCCn4ccnc4)cc3)c2)nc1 and O=C1c2cccc(Oc3ccccc3)c2C(=O)c2cccc(Oc3ccccc3)c21 cannot be ordered by TGI: over 25 µM for the first, over 100 µM for the second.

Going from O=C(OCc1ccc2c(Br)cc(Br)c(O)c2n1)c1cc2ccccc2[nH]1 to CC(C)(CO)CNC(=O)c1ccc2[nH]c(O)c(N=Nc3ccc(S(N)(=O)=O)cc3)c2c1, the TGI rises from 1.86 µM to over 25 µM.

CC1(C)N=C(N)N=C(N)N1c1ccc(CCC(=O)Nc2ccc(S(=O)(=O)F)cc2)cc1 and N#CC1(c2ccc(NC(=O)c3cccnc3NCc3ccncc3)cc2)CCCC1 cannot be ordered by TGI: over 100 µM for the first, over 85.9 µM for the second.

With CCN1C(=S)N(CC)C2C1NC(=S)N2/N=C/C=C/c1ccccc1OC (stereo unspecified) the TGI was 45.9 µM.

In the case of Cc1cc(O)c2c(c1)C(=O)C=CC2=O, the GI50 is reported as 5.57 µM and 2.21 µM.

With Cc1cc(O)c2c(c1)C(=O)C=CC2=O the TGI was 13 µM and 6.47 µM.
